Activity calls are given as the source filed them.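 The calls were made as follows: active = compounds giving half or more protection of infected cells from virus-caused growth loss, again on retest; inactive = the rest.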 Where a SMILES comes first, the peptide text is derived from it. [ ]: non-standard residue; d: D form. The star is where a group is joined. Hyp = O=C(O)[CH]1C[CH](O)CN1; Cbz = O=C(OCc1ccccc1)*
System: CEM cells HIV-1 protection, formazan growth assay
Test: NCI AIDS Antiviral Assay
Details: for IC50: measured here: growth of uninfected CEM cells
In short: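 Screen of anti-HIV-1 activity in human CEM cells using a formazan-based growth measurement at five drug concentrations. Hits with 50% or greater protection were repeated, and confirmation required reproducible complete protection.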

Structure (SMILES)	EC50	IC50	outcome
C=C(C)C1CCC2(C(=O)O)CCC3(C)C(CCC4C5(C)CCC(O)C(C)(C)C5CCC43C)C12 (stereo not given)	> 200 µM	66.1 µM	
Cc1cccc(C(C)C)c1NC(=O)C(=O)C(C(=O)c1ccccc1F)C1OC(=O)c2ccccc21 (stereo not given)	> 200 µM	15.8 µM	
CCCc1n[nH]c(=O)n1N1C(=O)C=CC1=O	> 200 µM	> 200 µM	
CC1OC(n2cc(F)c(=O)[nH]c2=O)C=CC1=O (stereo not given)	> 1050 µM	14.1 µM	
CN(C)CCSc1nccc(-c2cc3ccccc3s2)n1	> 417 µM	11.5 µM	
NC(Cc1cnc[nH]1)C(=O)NC(Cc1ccc(O)c(O)c1)C(=O)NCC(=O)N/C=C\c1c[nH]c2cc(Br)ccc12 (stereo not given)	> 81.3 µM	> 81.3 µM	
CCOC(=O)C(=CNC(=S)N=Nc1c(O)[nH]c2ccccc12)C(=O)OCC	> 200 µM	70.8 µM	
CN(C)CCN1N=Nc2cccc3cccc1c23			inactive
CCN(CC)CC(=O)Nc1ccc(Cl)cc1C(O)c1ccccc1 (stereo not given)	> 200 µM	120 µM	
O=C(Nc1cc(C(=O)Nc2cccc(S(=O)(=O)O)c2)cc(C(=O)Nc2cccc(S(=O)(=O)O)c2)c1)c1cccc(C(=O)Nc2cc(C(=O)Nc3cccc(S(=O)(=O)O)c3)cc(C(=O)Nc3cccc(S(=O)(=O)O)c3)c2)c1	97.7 µM	> 100 µM	
CC(=O)OC1=NN=C2COC(c3ccccc3OC(C)=O)=NN2C1	> 200 µM	115 µM	
CCCCCCCCCCCCC(SCCNC(=O)CCNC(=O)C(O)C(C)(C)COP(=O)(O)OP(=O)(O)OCC1OC(n2cnc3c(N)ncnc32)C(O)C1OP(=O)(O)O)C(=O)NCC(N)=O (stereo not given)			inactive
CCOC(=O)C(=CC[C@@H]1N[C@H](C(N)=O)Cc2c1[nH]c1ccccc21)C(=O)OCC	> 33.9 µM	> 33.9 µM	
CC(=O)[O-].Cc1ccnc(NS(=O)(=O)c2ccc(N=Cc3ccccc3[O-])cc2)n1.Cc1ccnc(NS(=O)(=O)c2ccc(N=Cc3ccccc3[O-])cc2)n1.[Cu+2]	> 200 µM	5.62 µM	
Cc1ccc(N=NC(=O)NNc2ccc(C)c([N+](=O)[O-])c2)cc1[N+](=O)[O-]	> 200 µM	63.1 µM	
COc1ccc2c(c1OC)C1N(C)CCc3cc4c(cc3C1(OC)C2=O)OCO4 (stereo not given)			inactive
N#Cc1c(OCCF)c2ccccc2n2c1nc1ccccc12	> 100 µM	> 100 µM	
Cc1ccc(-c2cc(=S)n(-c3ccccc3)c3nc(=S)n(-c4ccccc4)c(N)c23)cc1	> 200 µM	138 µM	
CC1=C2C(=O)c3ccccc3C2=C(C)S(=O)(=O)O1	> 955 µM	832 µM	
C[Si](C)(C)/C(Br)=C\CCN1C(=O)CCC1=O			inactive
CCCCCCCC1C(C)c2c([nH]c3ccccc23)C2C(=O)N(c3ccc(OC)cc3)C(=O)C21 (stereo not given)	> 200 µM	10.2 µM	
NC(N)=NN=C(c1ccccc1)c1ccccc1	> 200 µM	1.02 µM	

Structure (SMILES)	EC50	IC50	outcome
Cc1cn(C2CC(N=[N+]=[N-])C(COC(=O)CCCCCCCCCCCCl)O2)c(=O)[nH]c1=O (stereo not given)	0.288 µM	20 µM	
COc1c2c(cc3occ(-c4ccc(CC=C(C)C)cc4)c(=O)c13)OC(C)(C)C=C2	> 200 µM	14.1 µM	
COc1ccccc1NC(=S)N=Nc1c(O)[nH]c2ccccc12	> 200 µM	174 µM	
NC1=NN(c2ccccc2)C2(c3ccncc3C(=O)O)C1C(N)=NN2c1ccccc1 (stereo not given)	> 200 µM	> 200 µM	
O=C(O)CSc1nnc(COc2ccc(Cl)cc2)n1-c1ccccc1	> 200 µM	182 µM	
COc1ccc2[nH]c(C(=O)N3CC(CCl)c4ccc(N)cc43)cc2c1 (stereo not given)	> 2 µM	0.389 µM	
C=CCCCC12CCCc3cccc(c31)NC2=O (stereo not given)	> 151 µM	63.1 µM	
C/C(CC(O)(C(F)(F)F)C(F)(F)F)=N\NC(N)=S	> 200 µM	> 200 µM	
CC(C)(C)OC(=O)N1C(=O)C2CCCC21 (stereo not given)	> 200 µM	> 200 µM	
COc1ccc(NC(=O)CC(=O)N/N=C/c2ccc(N(CCC#N)S(C)(=O)=O)cc2)cc1	> 148 µM	> 148 µM	
C=C1N(S(=O)(=O)c2ccc(C)cc2)C(=O)OCC12CCCC2	> 200 µM	44.7 µM	
[O-]c1on[n+]2c1Cc1ccccc1C2	> 200 µM	> 200 µM	
Cc1ccc(S(=O)(=O)n2cnc(CC(NC(=O)C3CCC(=O)N3C(=O)OCc3ccccc3)C(=O)N3CCCC3C(=O)NN)c2)cc1 (stereo not given)	> 200 µM	> 200 µM	
O=c1nc(N2CCCC2)nc(N2CCCC2)s1			inactive
Nc1nc(NNc2ccccc2F)cc(=O)[nH]1	> 200 µM	28.2 µM	
N#C/C(=C(\N)c1ccccc1)c1ccccc1	> 200 µM	97.7 µM	
CN1CCOC(C(NC(=O)c2ccccc2)c2ccccc2)C1=O (stereo not given)	> 200 µM	> 200 µM	
CC1(C)OCC=CCO1	> 200 µM	> 200 µM	
CC(=O)O[C@H]1CN(S(=O)(=O)c2ccc(C)cc2)C[C@@H]1C1CCCCC1	> 200 µM	28.8 µM	
CC1=NC(C)(C)CC2CCC(O)C12 (stereo not given)	> 200 µM	> 200 µM	
CC(=O)N1CN2C(=O)CCC2c2ccccc21 (stereo not given)			inactive
[CH2+][B-]1(C)n2ccc[n+]2[B-](C)(C)[n+]2cccn21	> 200 µM	> 100 µM	

Structure (SMILES)	EC50	IC50	outcome
COP12(OC)NC(=O)OC1(C(F)(F)F)c1ccccc1O2 (stereo not given)	> 776 µM	537 µM	
COc1ccc(C2Oc3c(cccc3OC)C=C2[N+](=O)[O-])cc1 (stereo not given)	> 200 µM	1.51 µM	
NC(=O)CNC(=O)C1CC(O)CN1C(=O)C1CCCN1C(=O)OCc1ccccc1 (stereo not drawn) (Cbz-Pro-[Hyp]-Gly-NH2; configuration not given here)	> 200 µM	> 200 µM	
O=C(O)CS(=O)(=O)O	> 200 µM	> 200 µM	
COCCCNC1=C(C#N)C(=O)NC2(CCCC2)S1	> 525 µM	> 525 µM	
NC(CSCCCS(=O)(=O)O)C(=O)O (stereo not given)	> 200 µM	> 200 µM	
Cn1c(=O)cc(NCc2ccc(Cl)cc2)[nH]c1=O	> 200 µM	195 µM	
O=c1oc2nc3ccc(Cl)cc3c(=O)n2c2ccc(Cl)cc12	> 200 µM	> 200 µM	
CCCCCCCCCCCCCCOCCS(=O)(=O)O	> 200 µM	52.5 µM	
COc1ccc(-c2nnc(CCCCCCCCc3nnc(-c4ccc(OC)cc4)n3N)n2N)cc1	> 200 µM	> 200 µM	
CO/C(N)=C(\C#N)N=Cc1ccsc1	> 200 µM	126 µM	
CCn1c(=O)c2c3cc(OC(C)=O)ccc3oc2c2ccc(OC(C)=O)cc21	> 200 µM	53.7 µM	
O=C1c2ccccc2-c2nnc3c(c21)-c1ccccc1C3	> 200 µM	93.3 µM	
Nc1cc(=O)[nH]c(N)n1			inactive
CCC1(N=[N+]=[N-])C(=O)c2ccccc2N(c2ccccc2)C1=O (stereo not given)	> 200 µM	> 200 µM	
CCOC(=O)Cc1csc(/N=C\c2c(O)c3ccccc3oc2=O)n1	> 200 µM	40.7 µM	
C1=CC2C=CC(C=C1)P2c1ccccc1 (stereo not given)			inactive
COc1nc2c(c(=O)[nH]1)N=C(c1ccccc1)CC(c1ccccc1)N2 (stereo not given)	> 200 µM	> 200 µM	
CC(=O)Nc1ccc(N2C(=O)/C(=C\c3cccc(Oc4ccccc4)c3)SC2c2ccccc2)cc1 (stereo not given)	> 200 µM	36.3 µM	
O=C1O[C@H]2CCC3=CC[C@@H](c4ccccc4)C=C1[C@H]32			inactive
[Cu+2].[O-]/N=C/c1ccc[oH+]1.[O-]/N=C/c1ccc[oH+]1	> 200 µM	11.7 µM	
Nc1[nH]n(-c2ccccc2)c(=O)c1/C=N/C(=S)N=Nc1c(O)[nH]c2ccccc12	> 200 µM	83.2 µM	

Structure (SMILES)	EC50	IC50	outcome
CCOC(=O)C1(C(C)C)OC2CCCCCN2C1=O (stereo not given)	> 589 µM	> 589 µM	
CC(=O)OCc1c2ccccc2c(C)c2c1cc(F)c1ccccc12			inactive
CC(NC(=O)C(OC(=O)C(C)NC(=O)OC(C)(C)C)C(C)C)C(=O)OC(C(=O)O)C(C)C (stereo not given)	> 200 µM	> 200 µM	
C[Si](C)(C)C(CCCCSc1ccccc1)(Sc1ccccc1)Sc1ccccc1			inactive
O=C(NCCN(CCNC(=O)c1cccc(=O)n1O)CCNC(=O)c1cccc(=O)n1O)c1cccc(=O)n1O	> 200 µM	> 200 µM	
CCN1C[C@]2(COC)CCC(OC(=O)c3ccc(OC)cc3)C34[C@@H]5C[C@@H]6C(OC(C)=O)[C@@H]5[C@](OC(C)=O)(C[C@@H]6OC)[C@@H](C(OC)[C@@H]32)[C@H]14 (stereo not given in full)			inactive
O=C(NNc1nc(-c2ccccc2)cs1)Nc1ccccc1	> 200 µM	40.7 µM	
C=CC(=O)NC(O)(C(=O)OCC)C(F)(F)F (stereo not given)	> 200 µM	> 200 µM	
O=c1oc(-c2ccccc2)cn1-c1ccccc1			inactive
CCOP(=O)(OCC)C1=NC=CC=CC1n1c(-c2ccccc2)nn(CC)c1=O (stereo not given)	> 603 µM	417 µM	
Cc1cc(C)nc(NS(=O)(=O)c2ccc(Nc3c4ccc(Cl)cc4nc4c(C(=O)Nc5ccc(S(N)(=O)=O)cc5)cccc34)cc2)n1	> 52.5 µM	42.7 µM	
CCOC(=O)N1N=C(c2ccccc2)OC2(N3CCCC3)CCC(C(C)(C)C)CC12 (stereo not given)	44.7 µM	105 µM	
Cc1c(-c2ccccc2)c(=O)oc2ccc(Cl)cc12			inactive
COc1ccccc1NC(=O)C1=C(C)NC(C)=C(C(=O)Nc2ccccc2OC)C1C1=CC=COC1	> 14.8 µM	> 14.8 µM	
c1ccc(OCc2nnc(CCCCCCCCc3nnc(COc4ccccc4)o3)o2)cc1	> 200 µM	> 200 µM	
CC1CN=C(N(C(=O)Nc2ccc(Cl)cc2)c2cccc(Cl)c2)S1 (stereo not given)			inactive
CC(=O)OC1C2CCC1C1C2N=NN1c1ccc([N+](=O)[O-])cc1 (stereo not given)	> 151 µM	> 151 µM	
CCOC(C)CCCS(=O)(=O)O (stereo not given)	> 200 µM	> 200 µM	
N#Cc1nc(Cc2ccccc2)oc1N			inactive
[N-]=[N+]=NI1OC(=O)c2ccccc21	> 200 µM	55 µM	
Cc1cccc(N(C=O)c2c(O)nc(N)[nH]c2=O)c1	> 200 µM	> 200 µM	
COc1ccc(Cc2cc(N=O)c(C)cc2O)cc1	> 200 µM	12.6 µM	
